Measured values from ChEMBL document CHEMBL1201862, “PubChem BioAssay data set” (2004).
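Five compound concentrations were applied to cells in 96-well plates for 48 hours; endpoints were derived by simple linear interpolation of the resulting dose-response curve. GI50 = concentration required for 50% inhibition of growth.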 The source made the active and inactive calls. Rule as the data show it: active = GI50 up to about 1.1 µM and inactive = higher.

Columns and labels:
Test in all cases: DTP human tumour cell line panel, 48 h
K562 = tested on: K562
SF-268 = tested on: SF-268
MCF7 = tested on: MCF7
NCI-H23 = tested on: NCI-H23
SR = tested on: SR
HCC 2998 = tested on: HCC 2998
SF-295 = tested on: SF-295
U-251 = tested on: U-251
LOX IMVI = tested on: LOX IMVI
OVCAR-4 = tested on: OVCAR-4
CCRF-CEM = tested on: CCRF-CEM
SK-OV-3 = tested on: SK-OV-3
MDA-MB-231 = tested on: MDA-MB-231
ACHN = tested on: ACHN
HT-29 = tested on: HT-29
NCI-H522 = tested on: NCI-H522
OVCAR-8 = tested on: OVCAR-8
HOP-92 = tested on: HOP-92
IGROV-1 = tested on: IGROV-1
Malme-3M = tested on: Malme-3M

Compound: CCCCCCCCCC1CC(=O)NCC(=O)NC(C(C)C)C(=O)NC(CC(C)C)C(=O)NC(C)C(=O)NC(C(C)C)C(=O)O1 (stereo not given)
- GI50 (K562): 16.8 µM (inactive)
- GI50 (SF-268): 4.55 µM (inactive)
- GI50 (MCF7): 17.8 µM (inactive)
- GI50 (NCI-H23): 13.6 µM (inactive)
- GI50 (SR): 13.3 µM (inactive)
- GI50 (HCC 2998): > 42.7 µM (inactive)
- GI50 (SF-295): 13.3 µM (inactive)
- GI50 (U-251): 12.8 µM (inactive)
- GI50 (LOX IMVI): 7.96 µM (inactive)
- GI50 (OVCAR-4): 4.76 µM (inactive)
- GI50 (CCRF-CEM): 15.7 µM (inactive)
- GI50 (SK-OV-3): 16.6 µM (inactive)
- GI50 (MDA-MB-231): 10.2 µM (inactive)
- GI50 (ACHN): > 79.8 µM (inactive)
- GI50 (HT-29): 5.9 µM (inactive)
- GI50 (NCI-H522): 14 µM (inactive)
- GI50 (OVCAR-8): 6.03 µM (inactive)
- GI50 (HOP-92): 15.5 µM (inactive)
- GI50 (IGROV-1): 31.9 µM (inactive)
- GI50 (Malme-3M): 22.6 µM (inactive)

Compound: Cc1cc(C)nc(NS(=O)(=O)c2ccc(NC(=O)c3ccc4nc5ccccc5c(Nc5ccc(S(=O)(=O)N=C(N)N)cc5)c4c3)cc2)n1
- GI50 (K562): 46.6 µM (inactive)
- GI50 (SF-268): > 100 µM (inactive)
- GI50 (MCF7): > 100 µM (inactive)
- GI50 (NCI-H23): > 100 µM (inactive)
- GI50 (SR): > 100 µM (inactive)
- GI50 (HCC 2998): > 100 µM (inactive)
- GI50 (SF-295): > 100 µM (inactive)
- GI50 (U-251): > 100 µM (inactive)
- GI50 (LOX IMVI): > 100 µM (inactive)
- GI50 (OVCAR-4): > 100 µM (inactive)
- GI50 (CCRF-CEM): 68.5 µM (inactive)
- GI50 (SK-OV-3): > 100 µM (inactive)
- GI50 (MDA-MB-231): > 100 µM (inactive)
- GI50 (ACHN): > 100 µM (inactive)
- GI50 (HT-29): > 100 µM (inactive)
- GI50 (NCI-H522): > 100 µM (inactive)
- GI50 (OVCAR-8): > 100 µM (inactive)
- GI50 (HOP-92): 32.4 µM (inactive)
- GI50 (IGROV-1): > 100 µM (inactive)
- GI50 (Malme-3M): > 100 µM (inactive)

Compound: COc1ccc(/C=C2\CCC(CN(C)C)C2=O)cc1 (stereo not given)
- GI50 (K562): 1.6 µM (inactive)
- GI50 (SF-268): 9.71 µM (inactive)
- GI50 (MCF7): 1.95 µM (inactive)
- GI50 (NCI-H23): 7.91 µM (inactive)
- GI50 (SR): 1.26 µM (inactive)
- GI50 (HCC 2998): 8.13 µM (inactive)
- GI50 (SF-295): 17.9 µM (inactive)
- GI50 (U-251): 18.3 µM (inactive)
- GI50 (LOX IMVI): 1.93 µM (inactive)
- GI50 (OVCAR-4): 8.34 µM (inactive)
- GI50 (CCRF-CEM): 2.26 µM (inactive)
- GI50 (SK-OV-3): 17.6 µM (inactive)
- GI50 (MDA-MB-231): 1.99 µM (inactive)
- GI50 (ACHN): 9.77 µM (inactive)
- GI50 (HT-29): 3.5 µM (inactive)
- GI50 (NCI-H522): 1.1 µM (active)
- GI50 (OVCAR-8): 3.24 µM (inactive)
- GI50 (HOP-92): 6.1 µM (inactive)
- GI50 (IGROV-1): 8.47 µM (inactive)
- GI50 (Malme-3M): 4.92 µM (inactive)

Compound: COC1=C(OC)C(=O)c2cc(C)c(=O)c(C)cc2C1=O
- GI50 (K562): 3.19 µM (inactive)
- GI50 (SF-268): 13.6 µM (inactive)
- GI50 (MCF7): 17.9 µM (inactive)
- GI50 (NCI-H23): 16.9 µM (inactive)
- GI50 (SR): 2.65 µM (inactive)
- GI50 (HCC 2998): 22.4 µM (inactive)
- GI50 (SF-295): 32.6 µM (inactive)
- GI50 (U-251): 17.2 µM (inactive)
- GI50 (LOX IMVI): 11.2 µM (inactive)
- GI50 (OVCAR-4): 2.83 µM (inactive)
- GI50 (CCRF-CEM): 2.45 µM (inactive)
- GI50 (SK-OV-3): 22 µM (inactive)
- GI50 (MDA-MB-231): 7.94 µM (inactive)
- GI50 (ACHN): 14.8 µM (inactive)
- GI50 (HT-29): 22.1 µM (inactive)
- GI50 (NCI-H522): 14.6 µM (inactive)
- GI50 (OVCAR-8): 17.3 µM (inactive)
- GI50 (HOP-92): 16.4 µM (inactive)
- GI50 (IGROV-1): 18.6 µM (inactive)
- GI50 (Malme-3M): 17.1 µM (inactive)

Compound: COC(=O)c1cc2c(cc1O)[C@@H](NC(C)=O)CCc1cc(OC)c(OC)c(OC)c1-2
- GI50 (K562): 0.0412 µM (active)
- GI50 (SF-268): 0.0792 µM (active)
- GI50 (MCF7): < 0.01 µM (active)
- GI50 (NCI-H23): 0.0296 µM (active)
- GI50 (SR): 0.055 µM (active)
- GI50 (HCC 2998): 0.0578 µM (active)
- GI50 (SF-295): 0.0385 µM (active)
- GI50 (U-251): 0.0342 µM (active)
- GI50 (LOX IMVI): 0.0501 µM (active)
- GI50 (OVCAR-4): 0.0432 µM (active)
- GI50 (CCRF-CEM): 0.0492 µM (active)
- GI50 (SK-OV-3): 0.0951 µM (active)
- GI50 (MDA-MB-231): 0.0923 µM (active)
- GI50 (ACHN): 0.111 µM (active)
- GI50 (HT-29): 0.044 µM (active)
- GI50 (NCI-H522): 0.0222 µM (active)
- GI50 (OVCAR-8): 0.0577 µM (active)
- GI50 (HOP-92): 0.0647 µM (active)
- GI50 (IGROV-1): 0.0627 µM (active)
- GI50 (Malme-3M): 0.0243 µM (active)
